Each structure is given as a SMILES string.

Common to all, as to format: cell-based, mouse
Assay [1] relates to β-galactosidase in CMV-LacZ C2C12 myotubes. The experiment in a line: CMV-LacZ secondary screen in C2C12 myotubes (β-Gal stabilizing assay). Conditions: for CMV-LACZ in Myotubes, signal relative to DMSO: C2C12 CMV-LacZ myotubes, fold relative to DMSO; for CMV-LACZ in Myotubes, value relative to DMSO: SU9516 analogs, C2C12 CMV-LacZ, N=2. The method in brief: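 Dose-response runs at 0.5–40 μM (0.5, 1, 5, 10, 20, 40 μM; N=2 per point) used a clonal C2C12 line carrying CMV-LacZ. Cells were assayed as myoblasts or as differentiated myotubes, and β-galactosidase levels were read with the FDG fluorogenic substrate.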

Assay [2] deals with α7 integrin (LacZ reporter in α7+/LacZ myotubes). The experiment in a line: Myotube α7 integrin FDG assay (Burkin assay in myotubes, 96-well). Conditions: for Burkin Assay in Myotubes, value relative to DMSO: SU9516 analogs, 96-well, N=3-6.
Assay [3] relates to β-galactosidase in CMV-LacZ C2C12 myoblasts. The assay is described as follows: CMV-LacZ secondary screen in C2C12 myoblasts (β-Gal stabilizing assay). Conditions: for CMV-LACZ in Myoblasts (β-galactosidase activity relative to DMSO): CMV-LacZ C2C12 myoblasts; for CMV-LACZ in Myoblasts, value relative to DMSO: SU9516 analogs, C2C12 CMV-LacZ, N=2. The method in brief:
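C2C12 myoblasts stably carrying a linearized CMV-driven LacZ construct, clone chosen by β-gal level in the myoblast FDG assay. Compounds tested in 96-well dose-response at 0.5, 1, 5, 10, 20 and 40 μM, N=2 replicates per point, to detect β-gal stabilization.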

Assay [4] relates to α7 integrin (LacZ reporter in α7βgal+/− myoblasts). The assay is described as follows: Myoblast α7+/LacZ integrin FDG assay (Burkin assay in myoblasts, 96-well). Conditions: 96-well; for Burkin Assay in Myoblasts, signal relative to DMSO: α7+/LacZ myoblasts; for Burkin Assay in Myoblasts, value relative to DMSO: SU9516 analogs, N=3-6.

Turning to `CCCCNc1nnc(Cc2ccc(Cl)cc2)c(=O)[nH]1` [MLS001215795-01], the “CMV-LACZ in Myotubes, signal relative to DMSO” value turned out to be 0.9363 in assay [1] (0.5 uM); 1.0207 in assay [1] (1 uM); 0.9309 in assay [1] (5 uM); 1.0250 in assay [1] (10 uM); 1.3929 in assay [1] (20 uM); 1.1035 in assay [1] (40 uM). The “Burkin Assay in Myotubes, α7 integrin LacZ reporter signal relative to DMSO” value in assay [2] (0.5 uM) was 1.291; in assay [2] (1 uM), 1.191; in assay [2] (5 uM), 0.863; in assay [2] (10 uM), 0.9107; in assay [2] (20 uM), 0.9147; in assay [2] (40 uM), 0.8873. Besides, the “CMV-LACZ in Myoblasts (β-galactosidase activity relative to DMSO)” value in assay [3] (0.5 uM) is 0.8003; in assay [3] (1 uM), 1.1375; in assay [3] (5 uM), 1.0974; in assay [3] (10 uM), 0.8628; in assay [3] (20 uM), 0.8196; in assay [3] (40 uM) it was 0.8256. Also, the “Burkin Assay in Myoblasts, signal relative to DMSO” value in assay [4] (0.5 uM) is given as 1.143; in assay [4] (1 uM) it was 1.207; in assay [4] (5 uM), 0.932; in assay [4] (10 uM), 0.7776; in assay [4] (20 uM) it was 0.741; in assay [4] (40 uM), 0.7187.
For `C=CCOc1ccc(C(=O)/C=C2/C(=O)Nc3ccccc32)cc1` [MLS001214264-01], the “CMV-LACZ in Myotubes, value relative to DMSO” value in assay [1] (0.5 uM) stood at 1.1210; in assay [1] (1 uM) it was 1.1905; in assay [1] (5 uM), 0.9411; in assay [1] (10 uM), 1.1534; in assay [1] (20 uM), 1.2424; in assay [1] (40 uM), 1.4482. Also, the “Burkin Assay in Myotubes, value relative to DMSO” value was found to be 0.9576 in assay [2] (0.5 uM); 0.8975 in assay [2] (1 uM); 0.9073 in assay [2] (5 uM); 1.058 in assay [2] (10 uM); 0.7165 in assay [2] (20 uM); 0.7173 in assay [2] (40 uM). Besides, the “CMV-LACZ in Myoblasts, value relative to DMSO” value in assay [3] (0.5 uM) was 1.0657; in assay [3] (1 uM) it was 1.1383; in assay [3] (5 uM), 1.3058; in assay [3] (10 uM), 0.9233; in assay [3] (20 uM), 0.3870; in assay [3] (40 uM), 0.4856. The “Burkin Assay in Myoblasts, value relative to DMSO” value in assay [4] (0.5 uM) turned out to be 0.8908; in assay [4] (1 uM) it was 0.8464; in assay [4] (5 uM), 0.743; in assay [4] (10 uM), 0.7009; in assay [4] (20 uM) it was 0.7879; in assay [4] (40 uM), 0.2394.

(Values after patent publication US9980943B2, “Methods of treating muscular dystrophy” (BOARD OF REGENTS OF THE NEVADA SYSTEM OF HIGHER EDUCATION, …, priority 2013, dated 2018).)
